The text below walks through data of US8207160B2, “Tetrahydrobenzazepines and their use in he modulation of the dopamine D3 receptor” (Abbott GmbH & Co. KG, priority 2003, dated 2012).

As usually defined, the Ki is a measure of affinity in units of concentration, obtained from inhibition or displacement.

Assay [1] addresses T1, human dopamine D2L receptors (long isoform) (Homo sapiens, UniProt P14416).
T1 construct: expressed in transfected cells; membranes used
As to the kind of experiment: Dopamine D2L receptor binding, displacement of [125I]-iodospiperone. As to conditions: Ki(D2L)/Ki(D3); human D2L and D3 receptors in HEK-293 membranes. As for the experimental part:
(§1) C) Biological Investigations—Receptor-Binding Studies: • The substance to be tested was dissolved either in methanol/Chremophor®) (BASF-AG) or in dimethyl sulfoxide and then diluted with water to the desired concentration.
II. Dopamine D2L receptor: • The mixture (1 ml) was composed of membranes from ˜10^6 HEK-293 cells with stably expressed human dopamine D2L receptors (long isoform) and 0.01 nM [^125I]-iodospiperone and incubation buffer (total binding) or additionally test substance (inhibition plot) or 1 μM haloperidol (nonspecific binding). Triplicate assays were carried out. • The incubation buffer contained 50 mM Tris, 120 mM NaCl, 5 mM KCl, 2 mM CaCl2, 2 mM MgCl2 and 0.1% bovine serum albumin. The buffer was adjusted to 7.4 with HCl.
(§2) III. Measurement and Evaluation: • After incubation at 25° C. for 60 minutes, the mixtures were filtered through Wathman GF/B glass fiber filters under vacuum using a cell harvester. The filters were transferred using a filter transfer system into scintillation vials. After addition of 4 ml of Ultima Gold® (Packard), the samples were shaken for one hour and then the radioactivity was counted in a Beta Counter (Packard, Tricarb 2000 or 2200CA). The cp values were converted into dpm on the basis of a standard quench series with the aid of the program supplied with the instrument. • The inhibition plots were evaluated by iterative nonlinear regression analysis using the Statistical Analysis System (SAS), similar to the “LIGAND” program described by Munson and Rodbard. • The compounds of the invention show very good affinities for the D3 receptor in these assays (<100 nM, frequently <50 nM) and bind selectively to the D3 receptor.

The target of assay [2] is T2, human dopamine D3 receptors (Homo sapiens, UniProt P35462).
T2 construct: expressed in transfected cells; membranes used
As to the kind of experiment: Dopamine D3 receptor binding, displacement of [125I]-iodosulpride. The conditions noted are these: membranes from HEK-293 cells with stably expressed human dopamine D3 receptors, 0.1 nM [125I]-iodosulpride, 25° C., 60 minutes; read-out: Ki (D3). As for the experimental part: as §1
I. Dopamine D3 Receptor: • The mixture (0.250 ml) was composed of membranes from ˜10^6 HEK-293 cells with stably expressed human dopamine D3 receptors, 0.1 nM [^125I]-iodosulpride and incubation buffer (total binding) or additionally test substance (inhibition plot) or 1 μM spiperone (nonspecific binding). Triplicate assays were carried out. • The incubation buffer contained 50 mM Tris, 120 mM NaCl, 5 mM KCl, 2 mM CaCl2, 2 mM MgCl2 and 0.1% bovine serum albumin, 10 μM quinolone, 0.1% ascorbic acid (prepared freshly each day). The buffer was adjusted to pH 7.4 with HCl.
as §2
For orientation: In a radioligand displacement assay an active substance lowers the binding of a labelled ligand.

T1 sequence (P14416 whole entry, canonical isoform): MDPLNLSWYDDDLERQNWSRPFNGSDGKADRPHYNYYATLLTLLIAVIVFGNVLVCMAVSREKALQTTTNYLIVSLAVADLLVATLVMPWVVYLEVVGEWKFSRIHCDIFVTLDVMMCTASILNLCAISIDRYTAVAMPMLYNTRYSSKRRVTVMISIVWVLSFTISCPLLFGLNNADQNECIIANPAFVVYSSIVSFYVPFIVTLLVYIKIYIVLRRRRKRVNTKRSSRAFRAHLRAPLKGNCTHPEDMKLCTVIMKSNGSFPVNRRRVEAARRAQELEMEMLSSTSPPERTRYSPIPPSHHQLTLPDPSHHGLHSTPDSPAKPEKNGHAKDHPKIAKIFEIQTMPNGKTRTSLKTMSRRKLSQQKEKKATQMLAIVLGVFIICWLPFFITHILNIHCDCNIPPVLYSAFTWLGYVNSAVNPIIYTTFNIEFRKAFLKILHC
T2 sequence (P35462 whole entry): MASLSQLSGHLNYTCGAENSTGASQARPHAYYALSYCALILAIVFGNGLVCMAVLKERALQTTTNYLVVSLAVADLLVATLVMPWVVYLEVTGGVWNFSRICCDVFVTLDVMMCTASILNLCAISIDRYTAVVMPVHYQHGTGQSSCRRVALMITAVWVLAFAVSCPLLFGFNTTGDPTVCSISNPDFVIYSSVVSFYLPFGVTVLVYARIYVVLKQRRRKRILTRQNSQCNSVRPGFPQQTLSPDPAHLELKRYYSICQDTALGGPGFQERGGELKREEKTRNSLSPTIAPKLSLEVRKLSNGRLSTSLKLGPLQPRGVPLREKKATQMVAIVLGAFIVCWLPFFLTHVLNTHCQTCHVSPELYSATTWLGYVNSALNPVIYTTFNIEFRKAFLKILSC

For the molecule `CC(C)c1ccc(S(=O)(=O)Nc2ccc3c(c2)CCN(C)CC3)cc1.Cl` [Example 56, 4-Isopropyl-N-(3-Methyl-2,3,4,5-Tetrahydro-1H-3-Benzazepin-7-yl)Benzenesulfonamide Hydrochloride], the “Selectivity vs. D2L*” value in assay [1] was determined as 66. In assay [2], the Ki turned out to be 1.2 nM.
Taken in the same sequence, the figures for `CC(C)c1ccc(S(=O)(=O)Nc2ccc3c(c2)CCN(CC2CC2)CC3)cc1.Cl` [Example 57, N-(3-Cyclopropylmethyl-2,3,4,5-Tetrahydro-1H-3-Benzazepin-7-yl)4-Isopropylbenzenesulfonamide Hydrochloride] were 115 and 2.1 nM.
Taken in the same sequence, the figures for `C=CCN1CCc2ccc(NS(=O)(=O)c3ccc(C(F)(F)F)cc3)cc2CC1.Cl` [Example 58, N-(3-Allyl-2,3,4,5-Tetrahydro-1H-3-Benzazepin-7-yl)4-(Trifluoromethyl)Benzenesulfonamide Hydrochloride] were 84 and 3.4 nM.
Take `C=CCN1CCc2ccc(NS(=O)(=O)c3ccc(C(C)C)cc3)cc2CC1.Cl` [Example 65, N-(3-Allyl-2,3,4,5-Tetrahydro-1H-3-Benzazepin-7-yl)-4-(Isopropyl)Benzenesulfonamide Hydrochloride]: in assay [1], the “Selectivity vs. D2L*” value amounted to 141. In addition, the Ki in assay [2] was determined as 0.4 nM.
Regarding `CC(C)c1ccc(S(=O)(=O)Nc2ccc3c(c2)CCN(CCCF)CC3)cc1.Cl` [Example 66, N-[3-(3-Fluoropropyl)-2,3,4,5-Tetrahydro-1H-3-Benzazepin-7-yl]-4-Isopropylbenzenesulfonamide Hydrochloride], the “Selectivity vs. D2L*” value in assay [1] was determined as 146. For the same molecule, the Ki in assay [2] turned out to be 1.2 nM.
